From publication PMC6912754, “Identification of A Novel Class of Benzofuran Oxoacetic Acid-Derived Ligands that Selectively Activate Cellular EPAC1” (Cells, 2019) come the findings set out here.

Molecules are shown by their SMILES.

The target in this assay is T1, EPAC2-CNBD (Homo sapiens, UniProt Q8WZA2).
T1 construct: gene RAPGEF4
T1 sequence (Q8WZA2 whole entry): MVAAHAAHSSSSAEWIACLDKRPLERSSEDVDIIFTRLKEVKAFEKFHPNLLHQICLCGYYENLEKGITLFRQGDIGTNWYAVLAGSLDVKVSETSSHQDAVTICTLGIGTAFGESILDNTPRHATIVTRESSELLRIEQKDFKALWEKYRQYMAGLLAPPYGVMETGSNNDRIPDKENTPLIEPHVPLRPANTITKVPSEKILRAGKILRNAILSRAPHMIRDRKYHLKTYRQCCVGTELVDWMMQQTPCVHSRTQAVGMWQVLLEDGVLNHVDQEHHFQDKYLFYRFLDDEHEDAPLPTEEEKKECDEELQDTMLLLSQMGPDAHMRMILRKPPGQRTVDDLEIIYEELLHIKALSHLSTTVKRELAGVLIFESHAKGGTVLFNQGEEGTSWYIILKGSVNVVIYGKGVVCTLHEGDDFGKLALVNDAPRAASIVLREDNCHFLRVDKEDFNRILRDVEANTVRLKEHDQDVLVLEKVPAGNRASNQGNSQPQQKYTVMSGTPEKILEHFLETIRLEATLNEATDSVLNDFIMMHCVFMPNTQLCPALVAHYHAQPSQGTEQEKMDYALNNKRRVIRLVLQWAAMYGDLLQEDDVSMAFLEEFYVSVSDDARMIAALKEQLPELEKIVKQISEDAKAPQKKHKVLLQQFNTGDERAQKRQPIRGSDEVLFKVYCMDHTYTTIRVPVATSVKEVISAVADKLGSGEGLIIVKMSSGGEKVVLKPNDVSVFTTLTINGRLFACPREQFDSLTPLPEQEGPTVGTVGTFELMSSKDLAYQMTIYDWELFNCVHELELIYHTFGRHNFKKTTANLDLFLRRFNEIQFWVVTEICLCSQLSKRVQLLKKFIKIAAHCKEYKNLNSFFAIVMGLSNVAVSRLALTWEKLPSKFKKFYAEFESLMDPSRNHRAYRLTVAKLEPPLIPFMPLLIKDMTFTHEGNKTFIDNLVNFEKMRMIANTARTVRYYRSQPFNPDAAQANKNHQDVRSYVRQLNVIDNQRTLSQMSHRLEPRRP
As to the kind of experiment: biochemical. On the set-up: 8-NBD-cAMP competition binding to GST-CNBD, fluorescence intensity 480/535 nm, dose response. Conditions: 8-NBD-cAMP displacement, mean; read-out: Pharmacology assay data / EPAC2 pIC50 (mean) (converted). As to the method: 8-(2-[7-nitro-4-benzofurazanyl] aminoethylthio) adenosine-3′,5′-cyclic monophosphate (8-NBD-cAMP) competition assays were performed with purified EPAC1-CNBD and EPAC2-CNBD GST-fusion proteins as previously described. Comparison of reference molecules, dose response curves (DRC) and pilot screens were done in black, low volume 384 assay plates (Greiner). Plates were incubated for 4 h before 8-NBD-cAMP fluorescence intensity at 480/535 nm (ex/em) was measured using the Envision multi-label plate reader (Perkin-Elmer; Waltham, MA, USA). EPAC1-CNBD (amino acids 169–318 of EPAC1) and EPAC2-CNBD (amino acids 304-453) cDNAs were previously sub-cloned into the multi-cloning site of the pGEX-6P-1 expression vector (GE Healthcare) by BC Bioscienes (Dundee, Scotland). Ral-GDS-RBD (amino acids 788-884) was cloned into pGEX-5X-1 as described. Recombinant EPAC1-CNBD, EPAC2-CNBD, EPAC1 (amino acids 149–881), Ral-GDS-RBD (amino acids 788-884), and Rap1B (amino acids 1–167) glutathione S-transferase (GST)-fusion proteins were then expressed and purified from BL-21 Escherichia coli, as previously described. Protein concentrations were determined by the bicinchoninic acid (BCA) assay or by Nanodrop 2000/2000c (Thermo Scientific). All recombinant proteins were determined to be pure by SDS-PAGE analysis. Proteins were stored in aliquots at −80 °C until required. Preliminary SAR on a benzofuran oxo-acetic acid series, based on SY000, was done using 8NBD-cAMP binding to EPAC1 and EPAC2 CNBDs, as summarized in the Supplementary Table, Supplementary Figures and Figure 4. […] Further alternatives to the R1 group (Figure S2), including reducing the linker length by a single [compound left out] […] In addition, N-methylation of the amide portion (ESC100960) also results in loss of activity. This could indicate a role for the NH as a hydrogen bond donor or that the substitution could adversely affect the conformation of the adjacent oxo-acetic acid group.
For the compound `Cc1c(C(=O)c2cccc(Br)c2)oc2ccc(CNC(=O)C(=O)O)cc12` [ESC1000906], the IC50 is 7.94 µM.
The same measure for `Cc1ccc(C(=O)c2oc3ccc(CNC(=O)C(=O)O)cc3c2C)cc1` [SY000]: 7.94 µM; for `Cc1ccc(C(=O)c2oc3ccc(CNC(=O)C(=O)O)cc3c2C(C)(C)C)cc1` [SY006]: 22.4 µM.
`CCc1c(C(=O)c2ccc(C)cc2)oc2ccc(CNC(=O)C(=O)O)cc12` [SY007]: the IC50 was 5.01 µM.
Under `Cc1ccc(C(=O)c2oc3ccc(CNC(=O)C(=O)O)cc3c2C(C)C)cc1` [SY009] stands 31.6 µM.
